For four molecules, IC50 results are on record in ChEMBL document CHEMBL1148960, “Furanolabdane diterpenes from Hypoestes purpurea” (J Nat Prod, 2004).

The test system of the assay is KB. Kind of assay: Cytotoxicity against human KB cells after 24 hrs by MTT assay. In kind it is functional, cell-based. A general note: Formazan colour is commonly taken as a measure of viable cells.

Broadly, the IC50 is the point on the concentration scale where inhibition reaches its midpoint. Lower therefore signals higher potency. `CC1=C[C@H]2OC(=O)[C@@]3(C)CCC[C@@](C)([C@@H]23)[C@H]1CC(=O)c1ccoc1` [HYPOPURIN A] yielded an IC50 of 9.4 µM. The value for `CC1=C[C@H]2OC3OC(=O)[C@@]4(C)CCC[C@@]3([C@@H]24)[C@H]1CC(=O)c1ccoc1` [HYPOPURIN B] was above 100 µM; that for `C[C@@]12C=C[C@@H]3[C@]4(CCC[C@]3(C)C(=O)OC4O1)[C@H]2CC(=O)c1ccoc1` (some centres undefined) [HYPOPURIN C] was above 100 µM; that for `CC1=C[C@H]2OC(=O)[C@@]3(C)CCC[C@@](C)([C@@H]23)[C@H]1CCC1=CCOC1=O` [HYPOPURIN D] was above 100 µM.
